These are literature values, as cited in patent publication US20220296560A1, “PHARMACEUTICAL COMPOSITION FOR ORAL ADMINISTRATION IN POWDER FORMULATION CONTAINING ANTIVIRAL AGENT” (DAE HWA PHARMA. CO., LTD., priority 2019, published 2022).

Each structure is given as a SMILES string. Read-outs that look alike come from different tables or passages of the source.

For the data set the following is noted: in vivo.

Turning to `CC(=O)N[C@H]1[C@H]([C@H](O)[C@H](O)CO)OC(C(=O)O)=C[C@@H]1N=C(N)N` [zanamivir, 5-(acetylamino)-4-{[amino(imino)methyl]amino}-2,6-anhydro-3,4,5-trideoxy-D-glycero-D-galacto-non-2-enonic acid], the bioavailability is 4-17% (inhaled or intranasal) and “about 2%” (po).
